molecular target: Cathepsin S (Homo sapiens, UniProt P25774); test: Inhibition of human cathepsin S
Sequence (P25774 whole entry): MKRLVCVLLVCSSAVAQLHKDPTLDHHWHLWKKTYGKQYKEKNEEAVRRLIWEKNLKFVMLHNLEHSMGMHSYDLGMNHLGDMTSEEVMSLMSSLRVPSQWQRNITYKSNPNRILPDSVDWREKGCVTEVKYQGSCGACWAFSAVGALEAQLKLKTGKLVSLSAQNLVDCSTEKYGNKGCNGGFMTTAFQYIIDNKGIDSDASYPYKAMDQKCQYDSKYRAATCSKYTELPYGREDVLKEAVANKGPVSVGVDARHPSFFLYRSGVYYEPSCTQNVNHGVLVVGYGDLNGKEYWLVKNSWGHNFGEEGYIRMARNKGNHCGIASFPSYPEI

IC50 [nM]	Kd [nM]	Compound
42	23.1	N#C[C@@]1(NC(=O)[C@@H](CC(=O)N2CCOCC2)CC2Cc3ccccc3C2)CCN(C2CCCCC2)C1
62	4.86	N#C[C@H](COCc1ccc(Cl)cc1)NC(=O)[C@@H](CC(=O)N1CCOCC1)CC1CCCCC1
171	25	N#C[C@H](CCc1ccccc1)NC(=O)[C@@H](CC(=O)N1CCOCC1)CC1CCCCC1
207	52	N#CC1(NC(=O)[C@@H](CC(=O)N2CCOCC2)CC2CCCCC2)CCN(Cc2ccccc2)CC1
251	177	CN1CCC(C#N)(NC(=O)[C@@H](CC(=O)N2CCOCC2)CC2CCCCC2)CC1
23	17.8	N#C[C@@]1(NC(=O)[C@@H](CC(=O)N2CCOCC2)CC2CCCCC2)CCN(C2CCCCC2)C1
41	13.8	N#C[C@]1(NC(=O)[C@@H](CC(=O)N2CCOCC2)CC2CCCCC2)CCN(CC2CCCCC2)C1
29	3.64	N#C[C@]1(NC(=O)[C@@H](CC(=O)N2CCOCC2)CC2CCCCC2)CCN(Cc2ccccc2)C1
22.3	15.2	N#C[C@@]1(NC(=O)[C@@H](CC(=O)N2CCOCC2)CC2CCCCC2)CCN(CCc2ccccc2)C1
14	13.8	CC1CCC(C[C@H](CC(=O)N2CCOCC2)C(=O)N[C@]2(C#N)CCN(C3CCCCC3)C2)CC1 (some centres undefined)
1.9	5.4	N#C[C@@]1(NC(=O)[C@@H](CC(=O)N2CCOCC2)CC2CCc3ccccc3C2)CCN(C2CCCCC2)C1 (some centres undefined)
3140		N#C[C@@]1(NC(=O)[C@@H](CC(=O)N2CCOCC2)CC2CCC(c3ccccc3)CC2)CCN(C2CCCCC2)C1 (some centres undefined)
39	53.3	CC(C)CN1CC[C@@](C#N)(NC(=O)[C@@H](CC(=O)N2CCOCC2)CC2CCCCC2)C1
75		N#C[C@@]1(NC(=O)[C@@H](CC(=O)N2CCOCC2)CC2CCCCC2)CCN(C2CCCC2)C1
22	20	N#C[C@@]1(NC(=O)[C@@H](CC(=O)N2CCOCC2)CC2CCCCC2)CCN(CC2CC2)C1
37	4.39	N#C[C@H](COCc1ccccc1)NC(=O)[C@@H](CC(=O)N1CCOCC1)CC1CCCCC1
135	12	N#CC1(NC(=O)[C@@H](CC(=O)N2CCOCC2)CC2CCCCC2)CC1
155	161	CN1CC[C@@](C#N)(NC(=O)[C@@H](CC(=O)N2CCOCC2)CC2CCCCC2)C1
66	60.6	CC(C)N1CC[C@@](C#N)(NC(=O)[C@@H](CC(=O)N2CCOCC2)CC2CCCCC2)C1
63	59	N#C[C@@]1(NC(=O)[C@@H](CC(=O)N2CCOCC2)CC2CCCC2)CCN(C2CCCCC2)C1
47	77.3	CC1(C[C@H](CC(=O)N2CCOCC2)C(=O)N[C@]2(C#N)CCN(C3CCCCC3)C2)CCCCC1
141	123	N#C[C@@]1(NC(=O)[C@@H](CC(=O)N2CCOCC2)CC2CCCCC2)CCNC1
23	11	N#C[C@@]1(NC(=O)[C@@H](CC(=O)N2CCOCC2)CC2CCCCC2)CCN(C2CCCCCC2)C1
